pIC50: −log10 of the molar value.
Tests used:
[1] = molecular target: ALK (Homo sapiens, UniProt Q9UM73); assay: ALK enzyme assay (HTRF); type: biochemical; conditions: 0.25 nM ALK, 15.0 μM ATP, values given as pIC50 category
Method: The method measures the ability of the isolated enzyme to catalyse the transfer of the gamma-phosphate from ATP onto the tyrosine residue of a biotinylated synthetic peptide. The extent of tyrosine phosphorylation was measured using an anti-phosphotyrosine antibody, and quantified by homogenous time-resolved fluorescence (HTRF) assay purchased from CisBio (62TK0PEJ).
Reactions were performed in black 384-well polystyrene low volume plates in a final volume of 5 μl.
The reactions were then started by adding the substrate mix. The reactions were allowed to proceed for 120 minutes at 20° C. The reactions were then terminated by the addition of 5 μl HTRF detection mix to each well. The final concentrations of the detection reagents were: 50 mM HEPES (pH7.0); 0.1% BSA; 0.8 M KF; 20 mM EDTA; 1 mM CHAPS; TK-antibody Europium Cryptate; and 41 nM streptavidin-XL665. Assay plates were left unsealed, stacked and incubated at 20° for 60 minutes. Quantification of activity was achieved by counting in an Envision Counter (PerkinElmer).
Compounds under analysis were dissolved in Me2SO to 1.0 mM and serially diluted 1 to 3 with Me2SO through twelve dilutions. 0.05 μl of each concentration was transferred to the corresponding well of an assay plate. This creates a final compound concentration range from 0.00017 to 10 μM.
The data for dose responses were plotted as % Inhibition calculated with the data reduction formula 100*(1-(U1-C2)/(C1-C2)) versus concentration of compound where U is the unknown value, C1 is the average control value obtained for 1% DMSO, and C2 is the average control value obtained for 0.1 M EDTA. Data were fitted with a curve described by:
[formula] where A is the minimum y, B is the maximum y concentration [M], D is the slope factor, and x is the log10 of the compound.

[2] = molecular target: T1, NIH-3T3 cells overexpressing human IGF-1R (Homo sapiens, UniProt P08069); assay: IGF-1R cellular autophosphorylation (DELFIA); type: cell-based
T1 construct: expressed in transfected cells; host or cells: NIH-3T3 (mouse fibroblasts)
T1 sequence (P08069 31-1367): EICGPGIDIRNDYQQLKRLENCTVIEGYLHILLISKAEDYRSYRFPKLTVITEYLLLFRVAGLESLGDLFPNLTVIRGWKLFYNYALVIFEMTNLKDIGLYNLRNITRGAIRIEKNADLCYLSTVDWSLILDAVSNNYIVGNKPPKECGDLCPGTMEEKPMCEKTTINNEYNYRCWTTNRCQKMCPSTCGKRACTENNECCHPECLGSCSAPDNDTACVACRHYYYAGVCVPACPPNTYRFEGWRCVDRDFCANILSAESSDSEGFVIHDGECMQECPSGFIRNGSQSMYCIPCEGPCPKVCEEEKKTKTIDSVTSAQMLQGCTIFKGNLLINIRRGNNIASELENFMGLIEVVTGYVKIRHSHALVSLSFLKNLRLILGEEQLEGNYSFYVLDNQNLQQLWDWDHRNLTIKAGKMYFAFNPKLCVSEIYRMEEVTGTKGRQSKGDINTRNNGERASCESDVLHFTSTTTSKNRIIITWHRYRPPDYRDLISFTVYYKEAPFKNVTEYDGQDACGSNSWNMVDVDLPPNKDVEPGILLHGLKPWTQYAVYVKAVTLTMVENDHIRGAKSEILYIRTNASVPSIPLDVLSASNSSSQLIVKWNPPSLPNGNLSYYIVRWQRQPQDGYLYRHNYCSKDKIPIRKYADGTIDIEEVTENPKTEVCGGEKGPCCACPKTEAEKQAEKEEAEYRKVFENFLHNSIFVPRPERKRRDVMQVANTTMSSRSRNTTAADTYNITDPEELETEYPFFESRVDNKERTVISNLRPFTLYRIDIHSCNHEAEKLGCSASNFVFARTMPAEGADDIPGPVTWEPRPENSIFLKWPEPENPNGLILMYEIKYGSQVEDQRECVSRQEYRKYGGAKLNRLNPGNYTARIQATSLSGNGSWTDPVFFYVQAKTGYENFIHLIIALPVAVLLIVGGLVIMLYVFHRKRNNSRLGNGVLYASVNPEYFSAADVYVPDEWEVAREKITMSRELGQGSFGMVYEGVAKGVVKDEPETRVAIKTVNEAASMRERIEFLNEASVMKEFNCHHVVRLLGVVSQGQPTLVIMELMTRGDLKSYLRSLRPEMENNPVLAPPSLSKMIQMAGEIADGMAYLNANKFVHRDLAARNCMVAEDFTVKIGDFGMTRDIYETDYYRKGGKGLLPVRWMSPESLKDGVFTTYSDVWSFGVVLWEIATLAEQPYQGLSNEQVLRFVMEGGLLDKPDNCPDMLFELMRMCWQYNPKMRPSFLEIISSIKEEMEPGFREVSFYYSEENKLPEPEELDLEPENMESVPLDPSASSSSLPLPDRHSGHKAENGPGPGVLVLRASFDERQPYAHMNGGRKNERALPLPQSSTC
Method: NIH-3T3 cells overexpressing human IGF-1R or IR were plated in 96-well plates (10,000 cells/well) in culture media containing 10% fetal bovine serum and incubated at 37° C. in a 5% CO2 incubator. Twenty four hours post-plating, cells were treated with different concentrations of test compounds ranging from 30 uM to 1.5 nM. Two hours after compound addition, cells were stimulated with either human IGF-1 (30 ng/ml) or insulin (3 ug/ml) for 15 minutes. Cell lysates are analyzed for phosphorylated receptors using dissociation enhanced lanthanide fluor-immuno assay (DELFIA) with anti-IGF-1R (MAB391, R&D Systems, Minneapolis, Minn.) or anti-IRβ (sc-711, Santa Cruz Biotechnology, Santa Cruz, Calif.) capture antibody and europium-labeled anti-pTyr antibody (Eu-N1 PT66, Perkin Elmer, Waltham, Mass.) for detection. The fluorescence signal for cells treated with compounds was expressed as percent relative to 100% stimulation (IGF-1 or insulin stimulated signal).

[3] = molecular target: T2, human IGF1R (hIGF1R) (Homo sapiens, UniProt P08069); assay: TR-FRET kinase assay of purified hIGF1R; type: biochemical; conditions: activated hIGF1R 0.5 nM, 10 μM ATP, values given as pIC50 category, read-out: IGF-1R pIC50 (converted)
T2 construct: containing amino acid residues 957-1367 of human IGF1R; made in house; host or cells: Sf9 cells (baculovirus)
T2 sequence (P08069 957-1367): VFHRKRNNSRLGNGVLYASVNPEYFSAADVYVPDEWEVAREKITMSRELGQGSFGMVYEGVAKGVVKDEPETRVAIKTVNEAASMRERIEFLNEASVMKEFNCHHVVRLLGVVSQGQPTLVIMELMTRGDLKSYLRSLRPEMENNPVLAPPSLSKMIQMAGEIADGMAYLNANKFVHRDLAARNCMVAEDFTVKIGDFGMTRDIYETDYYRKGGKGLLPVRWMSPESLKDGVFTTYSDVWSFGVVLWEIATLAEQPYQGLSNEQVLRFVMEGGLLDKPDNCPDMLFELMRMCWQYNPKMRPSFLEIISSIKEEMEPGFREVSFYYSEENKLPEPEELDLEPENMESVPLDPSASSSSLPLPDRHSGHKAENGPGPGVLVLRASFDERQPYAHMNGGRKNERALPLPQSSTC
Method: (§1) Time Resolved Fluorescence Resonance Energy Transfer (TR-FRET) assays were carried out on the exemplified compounds as follows:
(§2) Purity is determined by HPLC. The calculated molecular mass of the peptide is 2216 dalton. Tyrosine phosphorylation by human IGF1R (hIGF1R) or human IR (hIR) occurs as indicated (Y*) in the peptide sequence described. Solid peptide sample is dissolved to approximately 1 mM in DMSO, aliquoted, and stored at −20° C. until use. True peptide concentration is determined by amino acid analysis.
hIGF1R: GST-rTEV-IGF-1R(957-1367) containing amino acid residues 957-1367 of human IGF1R (as annotated by National Center for Biotechnology Information (NCBI) accession number NP_000866) is purified from a baculovirus expression system in Sf9 cells using Glutathione Sepharose 4FF column chromatography followed by Sephadex-200 size exclusion column chromatography. […] Samples, in 25 mM Tris-HCl, 250 mM NaCl, 5% glycerol, 1 mM DTT, pH 7.5, are stored at −80° C. until use.
(§3) hIGF1R: Activation of GST-rTEV-IGF-1R(957-1367) is achieved by a 4 minute incubation of hIGF1R (2.7 μM final) with 2 mM ATP in 50 mM HEPES, 20 mM MgCL2, 0.1 mg/ml BSA, at room temperature. Autophosphorylation is stopped by addition of EDTA (to 100 mM final). Aliquoted samples are flash frozen in liquid nitrogen and stored at −80° C. until use.
(§4) Assays are performed in 384-well (Greiner, Catalog No. 784076) microtiter plates. Reaction buffer (50 mM HEPES buffer, pH 7.5; 10 mM MgCL2; 3 mM DTT; 1 mM CHAPS; 0.1 mg/ml BSA) for peptide phosphorylation (10 μl volume) contained, in final concentrations, 500 nM biotinylated peptide substrate; 10 μM ATP; and purified, activated hIGF1R or hIR (0.5 nM). Compounds, titrated in DMSO, are evaluated at eleven concentrations ranging from 50 μM to 0.2 nM. […] Reactions are incubated for 1 hour at room temperature and are stopped by a 5 μl addition of EDTA (to 33 mM). A further addition of 5 μl detection reagents (for final 7 nM Streptavidin-APC (Perkin Elmer #CR^130-150), 1 nM Europium-labeled anti-phosphotyrosine monoclonal antibody (PerkinElmer #AD0067), added in reaction buffer (without DTT), is required for signal generation. After 30 minutes, signal is read on PerkinElmer Viewlux microplate imager or Wallac Victor fluorometer.
(§5) The data for compound concentration responses were plotted as % Inhibition, calculated with the data reduction formula 100*(1-[(U1-C2)/(C1-C2)]), versus concentration of compound, where • U is the unknown value, • C1 is the average control value obtained for DMSO only, and • C2 is the average control value obtained for reactions stopped with EDTA at • t=0.
(§6) Data were fitted to the curve described by: y=((Vmax*x)/(K+x)) where • Vmax is the upper asymptote and • K is the IC50.

[4] = molecular target: T3, human IR (hIR) (Homo sapiens, UniProt P06213); assay: TR-FRET kinase assay of purified hIR; type: biochemical; conditions: activated hIR 0.5 nM, 10 μM ATP, values given as pIC50 category
T3 construct: containing amino acid residues 979-1382 of human IR; made in house; host or cells: Sf9 cells (baculovirus), same process as hIGF1R
T3 sequence (P06213 979-1382): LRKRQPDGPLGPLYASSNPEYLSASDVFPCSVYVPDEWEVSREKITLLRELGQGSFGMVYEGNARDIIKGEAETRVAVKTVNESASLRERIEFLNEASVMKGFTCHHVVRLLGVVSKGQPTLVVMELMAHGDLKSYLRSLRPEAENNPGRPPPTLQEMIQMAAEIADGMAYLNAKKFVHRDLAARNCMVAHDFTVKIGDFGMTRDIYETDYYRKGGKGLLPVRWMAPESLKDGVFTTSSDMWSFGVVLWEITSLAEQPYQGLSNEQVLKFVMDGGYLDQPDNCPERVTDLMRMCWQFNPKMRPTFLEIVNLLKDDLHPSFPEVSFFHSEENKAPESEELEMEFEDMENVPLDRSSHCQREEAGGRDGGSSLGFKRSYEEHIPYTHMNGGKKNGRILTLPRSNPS
Method: as §1, §2
hIR: GST-rTEV-IR(979-1382) containing amino acid residues 979-1382 of human IR (as annotated by NCBI accession number NP_000199) is expressed and purified by the same process as hIGF1R. […] Samples, in 25 mM Tris-HCl, 250 mM NaCl, 5% glycerol, 1 mM DTT, pH 7.5, are stored at −80° C. until use.
as §3, with “hIR:” for “hIGF1R:”, “5” for “4”, “hIR” for “hIGF1R”, “100” for “50”, “10” for “20”
as §4, §5, §6

ALK, sequence (Q9UM73 19-1620): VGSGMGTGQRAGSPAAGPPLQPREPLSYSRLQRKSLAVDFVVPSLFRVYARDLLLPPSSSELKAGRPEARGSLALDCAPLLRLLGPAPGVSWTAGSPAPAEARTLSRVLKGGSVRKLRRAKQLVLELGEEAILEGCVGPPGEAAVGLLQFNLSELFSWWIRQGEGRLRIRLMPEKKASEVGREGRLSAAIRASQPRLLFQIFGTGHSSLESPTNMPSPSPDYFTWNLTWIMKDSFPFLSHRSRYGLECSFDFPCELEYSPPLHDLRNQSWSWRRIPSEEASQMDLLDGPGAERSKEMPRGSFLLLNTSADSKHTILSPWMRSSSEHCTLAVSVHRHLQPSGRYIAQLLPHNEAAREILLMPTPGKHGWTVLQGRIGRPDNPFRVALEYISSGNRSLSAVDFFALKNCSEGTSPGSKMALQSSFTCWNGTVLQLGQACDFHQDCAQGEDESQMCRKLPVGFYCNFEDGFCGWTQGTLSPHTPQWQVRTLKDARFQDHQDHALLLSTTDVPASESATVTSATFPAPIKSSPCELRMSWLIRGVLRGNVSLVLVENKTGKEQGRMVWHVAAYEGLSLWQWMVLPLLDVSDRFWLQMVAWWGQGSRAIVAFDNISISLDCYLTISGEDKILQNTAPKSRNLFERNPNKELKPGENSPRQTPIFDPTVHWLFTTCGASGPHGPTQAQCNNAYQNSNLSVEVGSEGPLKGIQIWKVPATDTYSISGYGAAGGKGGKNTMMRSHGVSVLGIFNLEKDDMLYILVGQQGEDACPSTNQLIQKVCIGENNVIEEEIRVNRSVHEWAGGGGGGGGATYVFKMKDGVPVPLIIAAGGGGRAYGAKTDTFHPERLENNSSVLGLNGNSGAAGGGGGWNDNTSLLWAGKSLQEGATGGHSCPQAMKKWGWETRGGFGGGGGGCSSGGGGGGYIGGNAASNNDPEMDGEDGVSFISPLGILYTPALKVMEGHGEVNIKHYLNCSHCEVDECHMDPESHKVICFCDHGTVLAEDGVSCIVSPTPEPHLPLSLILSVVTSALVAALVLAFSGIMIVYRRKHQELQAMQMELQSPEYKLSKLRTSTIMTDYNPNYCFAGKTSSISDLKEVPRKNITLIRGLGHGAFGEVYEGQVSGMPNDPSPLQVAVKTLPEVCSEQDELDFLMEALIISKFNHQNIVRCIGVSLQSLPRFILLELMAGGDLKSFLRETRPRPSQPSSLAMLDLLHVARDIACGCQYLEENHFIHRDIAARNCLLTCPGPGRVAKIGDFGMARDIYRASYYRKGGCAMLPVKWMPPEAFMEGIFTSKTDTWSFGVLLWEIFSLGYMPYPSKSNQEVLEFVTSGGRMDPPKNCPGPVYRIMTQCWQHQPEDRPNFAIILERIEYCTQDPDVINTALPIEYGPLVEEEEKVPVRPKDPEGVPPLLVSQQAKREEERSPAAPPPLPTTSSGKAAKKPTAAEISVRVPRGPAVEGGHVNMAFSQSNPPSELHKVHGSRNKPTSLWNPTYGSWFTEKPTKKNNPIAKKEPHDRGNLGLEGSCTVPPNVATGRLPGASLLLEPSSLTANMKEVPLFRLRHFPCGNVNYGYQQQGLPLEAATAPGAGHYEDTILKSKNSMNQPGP

| Compound | pIC50 [1] | pIC50 [2] | IC50 [3] [nM] | pIC50 [4] |
| --- | --- | --- | --- | --- |
| COc1cc(C2CCCN(C)C2)ccc1Nc1nc(Nc2ccccc2C(N)=O)c2cc[nH]c2n1 (stereo not drawn) [Example 5, 2-[(2-{[2-(methyloxy)-4-(1-methyl-3-piperidinyl)phenyl]amino}-1H-pyrrolo[2,3-d]pyrimidin-4-yl)amino]benzamide] | 9.00 to 9.60 | > 7.00 | 0.251 to 1 | 9.00 to 9.60 |
| CNC(=O)c1ccccc1Nc1nc(Nc2ccc(C3=CCCN(C)C3)cc2OC)nc2[nH]ccc12 [Example 21, N-methyl-2-[(2-{[2-(methyloxy)-4-(1-methyl-1,2,5,6-tetrahydro-3-pyridinyl)phenyl]amino}-1H-pyrrolo[2,3-d]pyrimidin-4-yl)amino]benzamide] | 9.00 to 9.60 | 6.30 to 7.00 | 1.26 to 3.98 | 9.00 to 9.60 |
| CNC(=O)c1ccccc1Nc1nc(Nc2ccc(C3CCCN(C)C3)cc2OC)nc2[nH]ccc12 (stereo not drawn) [Example 22, N-methyl-2-[(2-{[2-(methyloxy)-4-(1-methyl-3-piperidinyl)phenyl]amino}-1H-pyrrolo[2,3-d]pyrimidin-4-yl)amino]benzamide] | 9.00 to 9.60 | 6.30 to 7.00 | 1.26 to 3.98 | 9.00 to 9.60 |
| CNC(=O)c1ccccc1Nc1nc(Nc2ccc(N3CCN(C(C)C)CC3)cc2OC)nc2[nH]ccc12 [Example 25, N-methyl-2-[(2-{[4-[4-(1-methylethyl)-1-piperazinyl]-2-(methyloxy)phenyl]amino}-1H-pyrrolo[2,3-d]pyrimidin-4-yl)amino]benzamide] | 9.00 to 9.60 | 6.30 to 7.00 | 1.26 to 3.98 | 8.40 to 8.90 |
| Cc1ccc(NC(=O)CN(C)C)cc1Nc1nc(Nc2ccccc2C(=O)NCCO)c2cc[nH]c2n1 [Example 26, 2-{[2-({5-[(N,N-dimethylglycyl)amino]-2-methylphenyl}amino)-1H-pyrrolo[2,3-d]pyrimidin-4-yl]amino}-N-(2-hydroxyethyl)benzamide] | 6.70 to 8.30 | < 6.30 | 5.01 to 200 | 8.40 to 8.90 |
| COc1cc(N2CCN(C(C)C)CC2)ccc1Nc1nc(Nc2cccc(C)c2C(N)=O)c2cc[nH]c2n1 [Example 31, 2-methyl-6-[(2-{[4-[4-(1-methylethyl)-1-piperazinyl]-2-(methyloxy)phenyl]amino}-1H-pyrrolo[2,3-d]pyrimidin-4-yl)amino]benzamide] | 6.70 to 8.30 | < 6.30 | 5.01 to 200 | 6.80 to 8.30 |
| CCCN1CCC=C(c2ccc(Nc3nc(Nc4ccc(C)cc4C(N)=O)c4cc[nH]c4n3)c(OC)c2)C1 [Example 33, 5-methyl-2-[(2-{[2-(methyloxy)-4-(1-propyl-1,2,5,6-tetrahydro-3-pyridinyl)phenyl]amino}-1H-pyrrolo[2,3-d]pyrimidin-4-yl)amino]benzamide] | 9.00 to 9.60 | < 6.30 | 1.26 to 3.98 | 8.40 to 8.90 |
| CCCN1CCC=C(c2ccc(Nc3nc(Nc4ccc(OC)cc4C(N)=O)c4cc[nH]c4n3)c(OC)c2)C1 [Example 38, 5-(methyloxy)-2-[(2-{[2-(methyloxy)-4-(1-propyl-1,2,5,6-tetrahydro-3-pyridinyl)phenyl]amino}-1H-pyrrolo[2,3-d]pyrimidin-4-yl)amino]benzamide] | 9.00 to 9.60 | 6.30 to 7.00 | 1.26 to 3.98 | 8.40 to 8.90 |

Next, values leading:

| pIC50 [1] | pIC50 [2] | IC50 [3] [nM] | pIC50 [4] | Compound |
| --- | --- | --- | --- | --- |
| 9.00 to 9.60 | > 7.00 | 0.251 to 1 | 9.00 to 9.60 | COc1cc(C2=CCCN(C)C2)ccc1Nc1nc(Nc2ccccc2C(N)=O)c2cc[nH]c2n1 [Example 4, 2-[(2-{[2-(methyloxy)-4-(1-methyl-1,2,5,6-tetrahydro-3-pyridinyl)phenyl]amino}-1H-pyrrolo[2,3-d]pyrimidin-4-yl)amino]benzamide] |
| 9.00 to 9.60 | > 7.00 | 0.251 to 1 | 9.00 to 9.60 | COc1cc(C2=CCCN(C(C)C)C2)ccc1Nc1nc(Nc2ccccc2C(N)=O)c2cc[nH]c2n1 [Example 6, 2-[(2-{[4-[1-(1-methylethyl)-1,2,5,6-tetrahydro-3-pyridinyl]-2-(methyloxy)phenyl]amino}-1H-pyrrolo[2,3-d]pyrimidin-4-yl)amino]benzamide] |
| 8.40 to 8.90 | 6.30 to 7.00 | 1.26 to 3.98 | 8.40 to 8.90 | Cc1cc(N2CCOCC2)ccc1Nc1nc(Nc2ccccc2C(N)=O)c2cc[nH]c2n1 [Example 11, 2-[(2-{[2-methyl-4-(4-morpholinyl)phenyl]amino}-1H-pyrrolo[2,3-d]pyrimidin-4-yl)amino]benzamide] |
| 9.00 to 9.60 | < 6.30 | 0.251 to 1 | 9.00 to 9.60 | Cc1ccc(NC(=O)CN(C)C)cc1Nc1nc(Nc2ccccc2C(=O)NO)c2cc[nH]c2n1 [Example 28, 2-{[2-({5-[(N,N-dimethylglycyl)amino]-2-methylphenyl}amino)-1H-pyrrolo[2,3-d]pyrimidin-4-yl]amino}-N-hydroxybenzamide] |

Reference: US7981903B2, “2-[2-{phenylamino}-1H-pyrrolo[2,3-D]pyrimidin-4-yl)amino] benzamide derivatives as IGF-1R inhibitors for the treatment of cancer” (GlaxoSmithKline LLC, priority 2007, dated 2011)
